In patent US4471131A, “Novel silyl esters of N-phosphonomethylglycine” (Monsanto Company, priority 1983, dated 1984):

Legend:
Assay in all cases: post-emergence herbicidal activity, greenhouse
Assay type in all cases: in vivo
[1] = tested on: Quackgrass; settings: Table II
Procedure, shortened: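 Foliar spray, chamber, atomizer; plants 2–3 weeks old in topsoil pans; emulsifier ~0.4% by weight; rates as listed. Rating: injury relative to controls, ~2 and ~4 WAT.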

[2] = tested on: Hemp Sesbania; settings: Table III
Procedure, shortened: (§1)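 Plants grown two to three weeks in greenhouse soil pans were atomizer-sprayed with test chemical in spray containing about 0.4% emulsifier, at the listed rates. Injury relative to unsprayed controls observed at approximately two and four weeks after treatment.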

[3] = tested on: Pennsylvania Smartweed
Procedure, shortened: as §1

[4] = tested on: Panicum Spp; settings: Table III
Procedure, shortened: as §1

[5] = tested on: Downy Brome
Procedure, shortened: as §1

[6] = tested on: Rice; settings: Table III
Procedure, shortened: as §1

[7] = tested on: Velvetleaf
Procedure, shortened: as §1

[8] = tested on: Large Crabgrass; settings: Table III
Procedure, shortened: as §1

[9] = 2 WAT, 5.6 kg/h, formulated in anhydrous tetrahydrofuran
[10] = 4 WAT, 5.6 kg/h, formulated in anhydrous tetrahydrofuran
[11] = 2 WAT, 1.1 kg/h, formulated in anhydrous tetrahydrofuran
[12] = 2 WAT, .28 kg/h, formulated in anhydrous tetrahydrofuran
[13] = 4 WAT, 1.1 kg/h, formulated in anhydrous tetrahydrofuran
[14] = 4 WAT, .28 kg/h, formulated in anhydrous tetrahydrofuran
[15] = Table II, 2 WAT, 5.6 kg/h, formulated in anhydrous tetrahydrofuran
[16] = Table II, 2 WAT, 11.2 kg/h, formulated in anhydrous tetrahydrofuran
[17] = Table II, 4 WAT, 5.6 kg/h, formulated in anhydrous tetrahydrofuran
[18] = Table II, 4 WAT, 11.2 kg/h, formulated in anhydrous tetrahydrofuran
[19] = Table III, 2 WAT, 1.1 kg/h, formulated in anhydrous tetrahydrofuran
[20] = Table III, 2 WAT, .28 kg/h, formulated in anhydrous tetrahydrofuran
[21] = Table III, 4 WAT, 1.1 kg/h, formulated in anhydrous tetrahydrofuran
[22] = Table III, 4 WAT, .28 kg/h, formulated in anhydrous tetrahydrofuran
[23] = Table III, 2 WAT, 5.6 kg/h, formulated in anhydrous tetrahydrofuran
[24] = Table III, 4 WAT, 5.6 kg/h, formulated in anhydrous tetrahydrofuran

Structure (SMILES): CCCCOC(=O)CNCP(=O)(O)O[Si](c1ccccc1)(c1ccccc1)C(C)(C)C [Ex. 6, Glycine, N--((([(1,1-Dimethylethyl)Diphenylsilyl]Oxy)Hydroxyphosphinyl)methyl)-Butyl Ester]
- Plant Response Index (H) ([1]; 2 WAT, 5.6 kg/h): 0 (0-24% inhibition)
- Plant Response Index (H) [1, 9]: 0 (0-24% inhibition)
- Plant Response Index (H) ([1]; 2 WAT, 11.2 kg/h): 1 (25-49% inhibition)
- Plant Response Index (H) ([1]; 2 WAT, 11.2 kg/h, formulated in anhydrous tetrahydrofuran): 0 (0-24% inhibition)
- Plant Response Index (H) ([1]; 4 WAT, 5.6 kg/h): 0 (0-24% inhibition)
- Plant Response Index (H) [1, 10]: 1 (25-49% inhibition)
- Plant Response Index (H) ([1]; 4 WAT, 11.2 kg/h): 4 (100% inhibition)
- Plant Response Index (H) ([1]; 4 WAT, 11.2 kg/h, formulated in anhydrous tetrahydrofuran): 0 (0-24% inhibition)
- Plant Response Index (R) ([2]; 2 WAT, 1.1 kg/h): 1 (25-49% inhibition)
- Plant Response Index (R) [2, 11]: 1 (25-49% inhibition)
- Plant Response Index (R) ([2]; 2 WAT, 5.6 kg/h): 2 (50-74% inhibition)
- Plant Response Index (R) [2, 9]: 4 (100% inhibition)
- Plant Response Index (R) [2, 12]: 0 (0-24% inhibition)
- Plant Response Index (R) ([2]; 4 WAT, 1.1 kg/h): 1 (25-49% inhibition)
- Plant Response Index (R) [2, 13]: 0 (0-24% inhibition)
- Plant Response Index (R) ([2]; 4 WAT, 5.6 kg/h): 2 (50-74% inhibition)
- Plant Response Index (R) [2, 10]: 4 (100% inhibition)
- Plant Response Index (R) [2, 14]: 0 (0-24% inhibition)
- Plant Response Index (F) ([3]; Table II, 2 WAT, 5.6 kg/h): 0 (0-24% inhibition)
- Plant Response Index (F) [3, 15]: 0 (0-24% inhibition)
- Plant Response Index (F) ([3]; Table II, 2 WAT, 11.2 kg/h): 2 (50-74% inhibition)
- Plant Response Index (F) [3, 16]: 0 (0-24% inhibition)
- Plant Response Index (F) ([3]; Table II, 4 WAT, 5.6 kg/h): 0 (0-24% inhibition)
- Plant Response Index (F) [3, 17]: 0 (0-24% inhibition)
- Plant Response Index (F) ([3]; Table II, 4 WAT, 11.2 kg/h): 2 (50-74% inhibition)
- Plant Response Index (F) [3, 18]: 0 (0-24% inhibition)
- Plant Response Index (F) ([3]; Table III, 2 WAT, 1.1 kg/h): 2 (50-74% inhibition)
- Plant Response Index (F) [3, 19]: 3 (75-99% inhibition)
- Plant Response Index (F) ([3]; Table III, 2 WAT, 5.6 kg/h): 3 (75-99% inhibition)
- Plant Response Index (F) ([3]; Table III, 2 WAT, .28 kg/h): 3 (75-99% inhibition)
- Plant Response Index (F) [3, 20]: 1 (25-49% inhibition)
- Plant Response Index (F) ([3]; Table III, 4 WAT, 1.1 kg/h): 3 (75-99% inhibition)
- Plant Response Index (F) [3, 21]: 4 (100% inhibition)
- Plant Response Index (F) ([3]; Table III, 4 WAT, 5.6 kg/h): 3 (75-99% inhibition)
- Plant Response Index (F) [3, 22]: 1 (25-49% inhibition)
- Plant Response Index (S) ([4]; 2 WAT, 1.1 kg/h): 3 (75-99% inhibition)
- Plant Response Index (S) [4, 11]: 2 (50-74% inhibition)
- Plant Response Index (S) ([4]; 2 WAT, 5.6 kg/h): 4 (100% inhibition)
- Plant Response Index (S) [4, 9]: 2 (50-74% inhibition)
- Plant Response Index (S) ([4]; 2 WAT, .28 kg/h): 2 (50-74% inhibition)
- Plant Response Index (S) [4, 12]: 0 (0-24% inhibition)
- Plant Response Index (S) ([4]; 4 WAT, 1.1 kg/h): 3 (75-99% inhibition)
- Plant Response Index (S) [4, 13]: 2 (50-74% inhibition)
- Plant Response Index (S) ([4]; 4 WAT, 5.6 kg/h): 4 (100% inhibition)
- Plant Response Index (S) [4, 10]: 3 (75-99% inhibition)
- Plant Response Index (S) [4, 14]: 0 (0-24% inhibition)
- Plant Response Index (J) ([5]; Table II, 2 WAT, 5.6 kg/h): 0 (0-24% inhibition)
- Plant Response Index (J) [5, 15]: 0 (0-24% inhibition)
- Plant Response Index (J) ([5]; Table II, 2 WAT, 11.2 kg/h): 0 (0-24% inhibition)
- Plant Response Index (J) [5, 16]: 0 (0-24% inhibition)
- Plant Response Index (J) ([5]; Table II, 4 WAT, 5.6 kg/h): 0 (0-24% inhibition)
- Plant Response Index (J) [5, 17]: 0 (0-24% inhibition)
- Plant Response Index (J) ([5]; Table II, 4 WAT, 11.2 kg/h): 1 (25-49% inhibition)
- Plant Response Index (J) [5, 18]: 0 (0-24% inhibition)
- Plant Response Index (J) ([5]; Table III, 2 WAT, 1.1 kg/h): 1 (25-49% inhibition)
- Plant Response Index (J) [5, 19]: 1 (25-49% inhibition)
- Plant Response Index (J) ([5]; Table III, 2 WAT, 5.6 kg/h): 1 (25-49% inhibition)
- Plant Response Index (J) [5, 23]: 1 (25-49% inhibition)
- Plant Response Index (J) ([5]; Table III, 2 WAT, .28 kg/h): 1 (25-49% inhibition)
- Plant Response Index (J) [5, 20]: 0 (0-24% inhibition)
- Plant Response Index (J) ([5]; Table III, 4 WAT, 1.1 kg/h): 1 (25-49% inhibition)
- Plant Response Index (J) [5, 21]: 1 (25-49% inhibition)
- Plant Response Index (J) ([5]; Table III, 4 WAT, 5.6 kg/h): 3 (75-99% inhibition)
- Plant Response Index (J) [5, 24]: 2 (50-74% inhibition)
- Plant Response Index (J) [5, 22]: 0 (0-24% inhibition)
- Plant Response Index (O) ([6]; 2 WAT, 1.1 kg/h): 1 (25-49% inhibition)
- Plant Response Index (O) [6, 11]: 0 (0-24% inhibition)
- Plant Response Index (O) ([6]; 2 WAT, 5.6 kg/h): 2 (50-74% inhibition)
- Plant Response Index (O) [6, 9]: 1 (25-49% inhibition)
- Plant Response Index (O) ([6]; 2 WAT, .28 kg/h): 0 (0-24% inhibition)
- Plant Response Index (O) [6, 12]: 0 (0-24% inhibition)
- Plant Response Index (O) ([6]; 4 WAT, 1.1 kg/h): 1 (25-49% inhibition)
- Plant Response Index (O) [6, 13]: 0 (0-24% inhibition)
- Plant Response Index (O) ([6]; 4 WAT, 5.6 kg/h): 3 (75-99% inhibition)
- Plant Response Index (O) [6, 10]: 2 (50-74% inhibition)
- Plant Response Index (O) [6, 14]: 0 (0-24% inhibition)
- Plant Response Index (C) ([7]; Table II, 2 WAT, 5.6 kg/h): 0 (0-24% inhibition)
- Plant Response Index (C) [7, 15]: 0 (0-24% inhibition)
- Plant Response Index (C) ([7]; Table II, 2 WAT, 11.2 kg/h): 2 (50-74% inhibition)
- Plant Response Index (C) [7, 16]: 0 (0-24% inhibition)
- Plant Response Index (C) ([7]; Table II, 4 WAT, 5.6 kg/h): 0 (0-24% inhibition)
- Plant Response Index (C) [7, 17]: 0 (0-24% inhibition)
- Plant Response Index (C) ([7]; Table II, 4 WAT, 11.2 kg/h): 1 (25-49% inhibition)
- Plant Response Index (C) [7, 18]: 1 (25-49% inhibition)
- Plant Response Index (C) ([7]; Table III, 2 WAT, 1.1 kg/h): 1 (25-49% inhibition)
- Plant Response Index (C) [7, 19]: 1 (25-49% inhibition)
- Plant Response Index (C) ([7]; Table III, 2 WAT, 5.6 kg/h): 2 (50-74% inhibition)
- Plant Response Index (C) [7, 23]: 2 (50-74% inhibition)
- Plant Response Index (C) ([7]; Table III, 2 WAT, .28 kg/h): 0 (0-24% inhibition)
- Plant Response Index (C) [7, 20]: 0 (0-24% inhibition)
- Plant Response Index (C) ([7]; Table III, 4 WAT, 1.1 kg/h): 1 (25-49% inhibition)
- Plant Response Index (C) [7, 21]: 1 (25-49% inhibition)
- Plant Response Index (C) ([7]; Table III, 4 WAT, 5.6 kg/h): 2 (50-74% inhibition)
- Plant Response Index (C) [7, 24]: 2 (50-74% inhibition)
- Plant Response Index (C) [7, 22]: 0 (0-24% inhibition)
- Plant Response Index (T) ([8]; 2 WAT, 1.1 kg/h): 4 (100% inhibition)
- Plant Response Index (T) [8, 11]: 4 (100% inhibition)
- Plant Response Index (T) ([8]; 2 WAT, 5.6 kg/h): 4 (100% inhibition)
- Plant Response Index (T) [8, 9]: 4 (100% inhibition)
- Plant Response Index (T) ([8]; 2 WAT, .28 kg/h): 4 (100% inhibition)
- Plant Response Index (T) [8, 12]: 1 (25-49% inhibition)
- Plant Response Index (T) ([8]; 4 WAT, 1.1 kg/h): 4 (100% inhibition)
- Plant Response Index (T) [8, 13]: 4 (100% inhibition)
- Plant Response Index (T) ([8]; 4 WAT, 5.6 kg/h): 4 (100% inhibition)
- Plant Response Index (T) [8, 10]: 4 (100% inhibition)
- Plant Response Index (T) [8, 14]: 0 (0-24% inhibition)
